According to patent publication US20100210835A1, “Mimetic Drug Delivery Systems for Release with Specific Molecular Triggers” (BOARD OF REGENTS, THE UNIVERSITY OF TEXAS SYSTEM, priority 2009, published 2010):

Tests used:
Format in all cases: physicochemical
[1] = Loading of films with geraniol; settings: lactic acid-triggered films, 7 mm discs
Experimental: Loading of films with and Active Agent. The active agent geraniol was used for release studies. Once dry, 7 mm discs were carefully cut out using a standard stainless steel cork borer. The discs were lifted out and placed on a clean dish. For the loading, 100 mg of geraniol was weighed out and dissolved in 100 ml of 50% ethanol:distilled water, resulting in a final concentration of 1.0 mg/ml. The mixture was vigorously mixed and sonicated for 5 minutes. In the meantime discs were arranged in a segmented plastic container and the geraniol solution gently pipetted onto the discs until they were fully covered. The container was tightly covered and left at room temperature overnight. The following day the geraniol solution was gently removed by pipette until the discs were visible. The discs were washed three times with water and placed on a clean foil and left to dry overnight.

[2] = Release of geraniol from MIP polymers in lactic acid solutions; settings: 200 mg/dl lactic acid, 24 hours; FIG. 8
Experimental: Loading of films with and Active Agent. The active agent geraniol was used for release studies. Once dry, 7 mm discs were carefully cut out using a standard stainless steel cork borer. The discs were lifted out and placed on a clean dish. For the loading, 100 mg of geraniol was weighed out and dissolved in 100 ml of 50% ethanol:distilled water, resulting in a final concentration of 1.0 mg/ml.
The mixture was vigorously mixed and sonicated for 5 minutes. In the meantime discs were arranged in a segmented plastic container and the geraniol solution gently pipetted onto the discs until they were fully covered. The container was tightly covered and left at room temperature overnight. The following day the geraniol solution was gently removed by pipette until the discs were visible. The discs were washed three times with water and placed on a clean foil and left to dry overnight.
Preparation of lactic acid solutions. […]
Incubation Study—Geraniol. […] The stop clock started and samples were taken (100 ul) into HPLC autosampler vials and the concentration of geraniol present was determined by injecting onto a C18 HPLC column and monitoring at a wavelength of 195 nm.
Assay for Geraniol. Geraniol concentration was quantified using an HPLC Diode array detector (DAD) at 195 nm. After blanking with water, samples were injected and the peak area of the geraniol peak recorded. […]

[3] = Release of Nile Blue from MIP polymers in glucose solutions
Experimental: Loading of Films with Nile Blue For Release Studies. For dye loading, 50 mg of Nile Blue was weighed out and dissolved in 100 ml of distilled water, resulting in a final concentration of 0.5 mg/ml. The mixture was vigorously mixed and sonicated for 5 minutes. In the meantime discs were arranged in a segmented plastic container and the Nile Blue solution gently pipetted onto the discs until they were fully covered. The container was covered and left at room temperature overnight.
The following day the Nile Blue was gently removed by pipettes until the discs were visible. The discs were carefully removed and washed three times with water and then placed in a clean container and covered in water. The container was then placed on a hot plate set to 55° C. and left for three hours. The water was removed and the process repeated. At the end of six hours the discs were removed and placed on a clean foil and dried overnight at room temperature. The following day the discs were ready for study.
Preparation of glucose solutions. Glucose (200 mg) was weighed out and dissolved in 100 ml of water, resulting in a final concentration of 200 mg/dl.
Incubation—Nile Blue. The above solutions of glucose or lactic acid were used as triggers for Nile Blue release. 4 ml of each solution was placed into three petri dishes kept at room temperature. Stained discs were placed into each dish and the dish covered. Samples were taken (400 ul) into micro-cuvettes at specific time points and the concentration of Nile Blue present was determined by measuring the absorbance of the Nile Blue solutions at 625 nm.

| Structure (SMILES) | loading of geraniol in MIP films [1] | release of geraniol from MIP films [2] | release of Nile Blue from MIP films ([3]; films moved at 365 minutes from water to 200 mg/dl glucose, FIG. 5) | release of Nile Blue from MIP films ([3]; films moved at 450 minutes from glucose solution to fresh water, FIG. 6) | release of Nile Blue from MIP films ([3]; in water, about 5 hours) | release of Nile Blue from MIP films ([3]; increasing glucose concentration, FIG. 4) |
| --- | --- | --- | --- | --- | --- | --- |
| CC(C)=CCC/C(C)=C/CO [Geraniol] | approximately 145 μg per disc | ~100% | – | – | – | – |
| CC[N+](CC)=c1ccc2nc3c(cc(N)c4ccccc43)oc-2c1 [Nile Blue] | – | – | began almost immediately | stopped almost immediately | not showed any significant release | released in increasing amounts |
